# Results from patent US12479820B2, “Pyridin-3-yl derivatives” (Idorsia Pharmaceuticals Ltd, priority 2019, dated 2025).
# Target: T1, human LPA1 receptor (Homo sapiens, UniProt Q92633)
# T1 construct: TEV protease site; Gal4-VP16 transcription factor; host or cells: Tango EDG2-bla U2OS cells
# Experiment: Beta-arrestin recruitment assay to determine IC50 values for human LPAR1
# Assay type: cell-based
# Conditions: Tango EDG2-bla U2OS cells, antagonist assay, LPA 18:1 500 nM final
# From the text: Beta-Arrestin Recruitment Assay to Determine IC50 Values for Human LPAR1
# The Tango™ EDG2-bla U2OS cells are obtained from Invitrogen. These cells contain the human LPA1 receptor cDNA linked to a TEV protease site and a Gal4-VP16 transcription factor integrated into the Tango™ GPCR-bla U2OS parental cell line. This parental cell line stably expresses a beta-arrestin/TEV protease fusion protein and the beta-lactamase (bla) reporter gene under the control of a UAS response element. Upon LPA (agonist) binding, LPA1 receptor gets activated, leading to arrestin-protease recruitment and proteolytic release of the transcription factor: The transcription factor then regulates transcription of a beta-lactamase reporter construct, which is measured upon addition of the live-cell substrate.
# 10′000 Tango™ EDG2-bla U2OS cells are seeded in a 384-well black with clear bottom plate in 30 μl Freestyle 293 Expression Medium (Invitrogen) and incubated for 20 h at 37° C., 5% CO2. For antagonist assays, 5 μl of test compound (dilution series in DMSO/Freestyle 293 Expression medium/0.1% fatty acid free BSA (Sigma)) or buffer control are added per well and incubated for 30 min at 37° C., 5% CO2. 5 μl of LPA 18:1 (500 nM final) (solution in Freestyle 293 Expression medium/0.1% fatty acid free BSA (Sigma)) are added per well and the plate incubated for 16 h at 37° C., 5% CO2. Cells are then loaded with LiveBLAzer-FRET™ B/G Substrate (Invitrogen) for 2 h in the dark and the fluorescence emission at 460 nm and 530 nm is measured using the SynergyMx reader (BioTek). Following the background subtraction from both channels, the 460/530 nm emission ratio for each well is calculated, then plotted and fitted to a 4-parameter logistic function to obtain IC50 values. IC50 is the concentration of antagonist inhibiting 50% of the maximal response.
# T1 sequence (Q92633 whole entry, the tested form may be a part): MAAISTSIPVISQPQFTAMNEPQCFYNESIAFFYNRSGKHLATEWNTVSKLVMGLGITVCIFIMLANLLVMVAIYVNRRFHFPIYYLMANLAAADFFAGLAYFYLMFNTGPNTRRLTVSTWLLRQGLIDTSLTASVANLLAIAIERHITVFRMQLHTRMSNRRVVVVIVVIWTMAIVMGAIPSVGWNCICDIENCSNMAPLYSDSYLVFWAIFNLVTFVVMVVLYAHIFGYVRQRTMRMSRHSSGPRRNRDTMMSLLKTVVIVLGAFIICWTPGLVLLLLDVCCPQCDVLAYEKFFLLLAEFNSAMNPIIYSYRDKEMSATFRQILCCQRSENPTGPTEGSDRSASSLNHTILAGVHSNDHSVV
row,Structure (SMILES),IC50 [nM]
1,"COc1cc(Cl)ncc1NC(=O)C1(c2ccccc2C(C)C)CN(C(C)=O)C1 [Example 19-2, 1-acetyl-N-(6-chloro-4-methoxypyridin-3-yl)-3-(2-isopropylphenyl)azetidine-3-carboxamide]",19
2,"COc1cc(Cl)ncc1NC(=O)C1(c2ccccc2C(C)C)CN(C=O)C1 [Example 19-3, N-(6-chloro-4-methoxypyridin-3-yl)-1-formyl-3-(2-isopropylphenyl)azetidine-3-carboxamide]",9
3,"COc1cc(Cl)ncc1NC(=O)C1(c2ccccc2C(C)C)CN(C(=O)C2COC2)C1 [Example 19-4, N-(6-chloro-4-methoxypyridin-3-yl)-3-(2-isopropylphenyl)-1-(oxetane-3-carbonyl)azetidine-3-carboxamide]",385
4,"COc1cc(Cl)ncc1NC(=O)C1(c2ccccc2C(C)C)CN(C(=O)c2noc(O)n2)C1 [Example 19-6, N-(6-chloro-4-methoxypyridin-3-yl)-1-(5-hydroxy-1,2,4-oxadiazole-3-carbonyl)-3-(2-isopropylphenyl)azetidine-3-carboxamide]",61
5,"COc1cc(Cl)ncc1NC(=O)C1(c2ccccc2C(C)C)CN(C(=O)Cn2nccn2)C1 [Example 19-7, 1-(2-(2H-1,2,3-triazol-2-yl)acetyl)-N-(6-chloro-4-methoxypyridin-3-yl)-3-(2-isopropylphenyl)azetidine-3-carboxamide]",15
6,"COc1cc(Cl)ncc1NC(=O)C1(c2ccccc2C(C)C)CN(C(=O)Cn2cc(CO)nn2)C1 [Example 19-9, N-(6-chloro-4-methoxypyridin-3-yl)-1-(2-(4-(hydroxymethyl)-1H-1,2,3-triazol-1-yl)acetyl)-3-(2-isopropylphenyl)azetidine-3-carboxamide]",52
7,"COc1cc(Cl)ncc1NC(=O)C1(c2ccccc2C(C)C)CN(C(=O)Cn2ncnn2)C1 [Example 19-10, 1-(2-(2H-tetrazol-2-yl)acetyl)-N-(6-chloro-4-methoxypyridin-3-yl)-3-(2-isopropylphenyl)azetidine-3-carboxamide]",17
8,"COc1cc(Cl)ncc1NC(=O)C1(c2ccccc2C(C)C)CN(C(=O)Cc2cc(O)n[nH]2)C1 [Example 19-13, N-(6-chloro-4-methoxypyridin-3-yl)-1-(2-(3-hydroxy-1H-pyrazol-5-yl)acetyl)-3-(2-isopropylphenyl)azetidine-3-carboxamide]",112
9,"COc1cc(Cl)ncc1NC(=O)C1(c2ccccc2C(C)C)CN(C(=O)CNS(N)(=O)=O)C1 [Example 19-14, N-(6-chloro-4-methoxypyridin-3-yl)-3-(2-isopropylphenyl)-1-(sulfamoylglycyl)azetidine-3-carboxamide]",67
10,"COc1cc(Cl)ncc1NC(=O)C1(c2ccccc2C(C)C)CN(C(=O)CS(C)(=O)=O)C1 [Example 19-16, N-(6-chloro-4-methoxypyridin-3-yl)-3-(2-isopropylphenyl)-1-(2-(methylsulfonyl)acetyl)azetidine-3-carboxamide]",54
11,"COC(=O)C(C)(C)CC(=O)N1CC(C(=O)Nc2cnc(Cl)cc2OC)(c2ccccc2C(C)C)C1 [Example 19-17, methyl 4-(3-((6-chloro-4-methoxypyridin-3-yl)carbamoyl)-3-(2-isopropylphenyl)azetidin-1-yl)-2,2-dimethyl-4-oxobutanoate]",43
12,"COc1cc(Cl)ncc1NC(=O)C1(c2ccccc2C(C)C)CN(C(=O)CC(C)(C)C(=O)O)C1 [Example 19-18, 4-(3-((6-chloro-4-methoxypyridin-3-yl)carbamoyl)-3-(2-isopropylphenyl)azetidin-1-yl)-2,2-dimethyl-4-oxobutanoic acid]",88
13,"CCOc1cc(Cl)ncc1NC(=O)C1(c2ccccc2C(C)C)CN(C(=O)CC(C)(C)C(=O)OC)C1 [Example 19-21, methyl 4-(3-((6-chloro-4-ethoxypyridin-3-yl)carbamoyl)-3-(2-isopropylphenyl)azetidin-1-yl)-2,2-dimethyl-4-oxobutanoate]",72
14,"CCOc1cc(Cl)ncc1NC(=O)C1(c2ccccc2C(C)C)CN(C(=O)CC(C)(C)C(=O)O)C1 [Example 19-22, 4-(3-((6-chloro-4-ethoxypyridin-3-yl)carbamoyl)-3-(2-isopropylphenyl)azetidin-1-yl)-2,2-dimethyl-4-oxobutanoic acid]",12
15,"COc1cc(Cl)ncc1NC(=O)C1(c2ccccc2C(C)C)CN(S(C)(=O)=O)C1 [Example 20-1, N-(6-chloro-4-methoxypyridin-3-yl)-3-(2-isopropylphenyl)-1-(methylsulfonyl)azetidine-3-carboxamide]",11
16,"COc1cc(Cl)ncc1NC(=O)C1(c2ccccc2C(C)C)CN(S(=O)(=O)CCO)C1 [Example 20-3, N-(6-chloro-4-methoxypyridin-3-yl)-1-((2-hydroxyethyl)sulfonyl)-3-(2-isopropylphenyl)azetidine-3-carboxamide]",21
17,"COc1cc(Cl)ncc1NC(=O)C1(c2ccccc2C(C)C)CN(S(=O)(=O)CCN(C)C)C1 [Example 20-4, N-(6-chloro-4-methoxypyridin-3-yl)-1-((2-(dimethylamino)ethyl)sulfonyl)-3-(2-isopropylphenyl)azetidine-3-carboxamide]",472
18,"COc1cc(Cl)ncc1NC(=O)C1(c2ccccc2C(C)C)CN(S(=O)(=O)C2COC2)C1 [Example 20-5, N-(6-chloro-4-methoxypyridin-3-yl)-3-(2-isopropylphenyl)-1-(oxetan-3-ylsulfonyl)azetidine-3-carboxamide]",34
19,"CC(C)Oc1cc(Cl)ncc1NC(=O)C1(c2ccccc2C(C)C)CN(S(N)(=O)=O)C1 [Example 21-4, N-(6-chloro-4-isopropoxypyridin-3-yl)-3-(2-isopropylphenyl)-1-sulfamoylazetidine-3-carboxamide]",1

# The remaining molecules from weak to strong by IC50, led by results:
row,IC50 [nM],Structure (SMILES)
1,608,"COCCS(=O)(=O)N1CC(C(=O)Nc2cnc(Cl)cc2OC)(c2ccccc2C(C)C)C1 [Example 20-2, N-(6-chloro-4-methoxypyridin-3-yl)-3-(2-isopropylphenyl)-1-((2-methoxyethyl)sulfonyl)azetidine-3-carboxamide]"
2,270,"COc1cc(Cl)ncc1NC(=O)C1(c2ccccc2C(C)C)CN(C(=O)c2cc(O)no2)C1 [Example 19-5, N-(6-chloro-4-methoxypyridin-3-yl)-1-(3-hydroxyisoxazole-5-carbonyl)-3-(2-isopropylphenyl)azetidine-3-carboxamide]"
3,107,"COc1cc(Cl)ncc1NC(=O)C1(c2ccccc2C(C)C)CN(C(=O)Cn2ccnn2)C1 [Example 19-11, 1-(2-(1H-1,2,3-triazol-1-yl)acetyl)-N-(6-chloro-4-methoxypyridin-3-yl)-3-(2-isopropylphenyl)azetidine-3-carboxamide]"
4,100,"COc1cc(F)ncc1NC(=O)C1(c2ccccc2C(C)C)CN(C(=O)CC(C)(C)C(=O)O)C1 [Example 19-23, 4-(3-((6-fluoro-4-methoxypyridin-3-yl)carbamoyl)-3-(2-isopropylphenyl)azetidin-1-yl)-2,2-dimethyl-4-oxobutanoic acid]"
5,43,"COc1cc(Cl)ncc1NC(=O)C1(c2ccccc2C(C)C)CN(C(=O)Cn2cc(C)nn2)C1 [Example 19-8, N-(6-chloro-4-methoxypyridin-3-yl)-3-(2-isopropylphenyl)-1-(2-(4-methyl-1H-1,2,3-triazol-1-yl)acetyl)azetidine-3-carboxamide]"
6,37,"COc1cc(Cl)ncc1NC(=O)C1(c2ccccc2C(C)C)CN(C(=O)CNS(C)(=O)=O)C1 [Example 19-15, N-(6-chloro-4-methoxypyridin-3-yl)-3-(2-isopropylphenyl)-1-((methylsulfonyl)glycyl)azetidine-3-carboxamide]"
7,24,"COc1cc(Cl)ncc1NC(=O)C1(c2ccccc2C(C)C)CN(C(=O)Cc2c[nH]nc2O)C1 [Example 19-12, N-(6-chloro-4-methoxypyridin-3-yl)-1-(2-(3-hydroxy-1H-pyrazol-4-yl)acetyl)-3-(2-isopropylphenyl)azetidine-3-carboxamide]"
8,21,"COc1cc(Br)ncc1NC(=O)C1(c2ccccc2C(C)C)CN(C(=O)CC(C)(C)C(=O)O)C1 [Example 19-19, 4-(3-((6-bromo-4-methoxypyridin-3-yl)carbamoyl)-3-(2-isopropylphenyl)azetidin-1-yl)-2,2-dimethyl-4-oxobutanoic acid]"
9,17,"COc1cc(F)ncc1NC(=O)C1(c2ccccc2C(C)C)CN(S(N)(=O)=O)C1 [Example 21-1, N-(6-fluoro-4-methoxypyridin-3-yl)-3-(2-isopropylphenyl)-1-sulfamoylazetidine-3-carboxamide]"
10,2,"CCOc1cc(Cl)ncc1NC(=O)C1(c2ccccc2C(C)C)CN(S(N)(=O)=O)C1 [Example 21-3, N-(6-chloro-4-ethoxypyridin-3-yl)-3-(2-isopropylphenyl)-1-sulfamoylazetidine-3-carboxamide]"
